# Results taken from article PMC11035414, “A comparison study of dynamic [^18F]Alfatide II imaging and [^11C]MET in orthotopic rat models of glioblastoma” (Journal of Cancer Research and Clinical Oncology, 2024).
# Tests used:
# [1] = tested on: C6 glioblastoma-bearing rats; test: Ex vivo biodistribution study (γ counter); details: rat, in vivo
# Method: Biodistribution study: […] The tumors and major tissue organs (blood, brain, heart, lungs, liver, spleen, blander, kidneys, bowel, muscle, femur and tumor) were collected. Tissues and organs were washed with normal saline and dried, and weighed using an electronic scale. The radioactivity counts of tissues and organs were measured with a γ counter, and the corresponding radioactivity value (%ID/g) was calculated after time attenuation correction.
# [2] = tested on: orthotopic GBM rat models (C6 glioma cells); test: Dynamic PET/MR imaging, semi-quantitative analysis (SUVmean, TNR, time-activity curves); details: in vivo
# Method: C6 glioma cells from GuYan Biotech Co., Ltd. (Shanghai, China) were cultured in DMEM at 37 °C and 5% CO2. After two generations of cell culture, C6 cells were trypsinized and resuspended at the concentration of 1 × 10^7 cells/mL to prepare GBM model. […] After the hair on the top of the head was cut off, a small hole with a diameter of about 2 mm was drilled at the intersection of the left side of sagittal suture 3 mm and the front side of coronal suture 1 mm. […] After administering the injection, the syringe was carefully withdrawn. The burr hole was then sealed with bone wax, followed by suturing the skin closed. […] Simultaneous dynamic PET and MRI was performed with 150 mm field of view for whole-body mouse imaging. For [^18[…] imaging, the rat models received the intravenous bolus injection of 13.0 ± 2.1 MBq of the radiotracer. […] We conducted [^11C]MET and [^18[…] scans on 20 rats, with a time interval of no more than 48 h between the scans using the two tracers. […] On the PET image with both radiotracers, the MRI-based volume-of-interest (VOI) was manually delineated encompassing glioblastoma. […] The following parameters were extracted from TACs: time to peak (TTP) and slope of curve.
compound,measurement,setting,value
"[11CH3]SCC[C@H](N)C(=O)O [[^11C]MET, [^11C]methionine]","normal organ(s) with the highest uptake, ex vivo",[1],liver
same,SUVmean in contralateral normal brain tissue,[2],0.39 ± 0.12
same,tumor-to-normal brain ratio (TNR),[2],2.91 ± 0.81
